Laboratory results reported in ChEMBL document CHEMBL5726751, “Substituted spirocyclic inhibitors of autotaxin” (2019).
pIC50: −log10 of the molar value.

target: Autotaxin (Homo sapiens, UniProt Q13822); test: The following assays and their respective methods are carried out with the compounds according to the present invention. […] Those skilled in the art will appreciate that a variety of assay formats may be used to determine the activity of the compounds of this invention.Autotaxin LPC Cascade Assay:Assay Buffer:100 mM Tris-HCl, pH=9500 mM NaCl5 mM MgCl25 mM CaCl20.05% Triton X 100Reagents:Enzyme Source Stock conc Working conc. Final conc. Autotaxin X-Chem 4.6 μM 20 nM 5 nM LPC Sigma L5254 8 mM in assay buffer 400 μM 100 μM Choline Oxidase Sigma C5896 50 U/mL in water 0.8 U/mL 0.1 U/mL HRP Sigma P8375 1000 U/mL in water 8 U/mL 1 U/mL Ampliflu Red Sigma 90101 100 mM in DMSO 400 μM 50 μM.

Q: With `CC(C)[C@@H](NC(=O)c1cc(C(F)(F)F)ccc1F)C(=O)N1CCC2(CC1)C(=O)N(C)C(=O)N2c1ccc(OCCN(C)C)cc1` as the molecule, how does the pIC50 read?
A: Its pIC50 is less than 6.00.

Q: How did the pIC50 turn out when `CC(C)[C@@H](NC(=O)c1ccc(C#N)c(Cl)c1)C(=O)N1CCC2(CC1)C(=O)N(C)CN2c1ccccc1` was run?
A: Its pIC50 is less than 6.00.

Q: With `CN1C(=O)N(c2ccc3[nH]ncc3c2)C2(CCN(C(=O)C3(NC(=O)c4cc(C(F)(F)F)ccc4F)COC3)CC2)C1=O` as the molecule, how does the pIC50 read?
A: Its pIC50 is less than 6.00.

Q: With `Cc1cccc(C(=O)N[C@@H](C(=O)N2CCC3(CC2)C(=O)N(C)CN3c2cccc(C#N)c2)C(C)C)c1F` as the molecule, how does the pIC50 read?
A: The pIC50 was less than 6.00.

Q: How did the pIC50 turn out when `Cc1cccc(C(=O)N(C)[C@@H](C(=O)N2CCC3(CC2)C(=O)N(C)CN3c2ccccc2)C(C)C)c1` was run?
A: Its pIC50 is less than 6.00.
